In patent publication US20230201632A1, “METHODS FOR FIXING HAIR AND SKIN” (Olaplex, Inc., priority 2013, published 2023):

Legend:
[1] = Perm of hair with binding formulation or hydrogen peroxide, 40 wash and dry cycles; design: species or system human; conditions: after 40 cycles of washing and drying with the same shampoo and conditioner; hair reduced with ammonium thioglycolate or dithiothreitol
Experimental: Hair samples were obtained from a human subject and cut in ½ inch wide wefts.
Reducing agents: Ammonium thioglycolate (ATG) was obtained from a permanent wave kit manufactured by Zotos. 300 mg of Dithiothreitol in a 10 g solution was also used as the reducing agent.
Binding formulation: A bismaleate binding agent 2,2′-(ethane-1,2-diylbis(oxy))bis(ethan-1-amine) di-maleate at a concentration of 300 mg in 10 g total solution (water) was used.
The hair was washed with clarifying shampoo, towel dried, and then rolled around a perm rod. Ammonium thioglycolate or dithiothreitol was then applied to the hair and left on the hair for 10 minutes to 1 hour. The hair was then rinsed for 30 seconds to 1 minute and then blotted dry with a towel.
The binding formulation was applied to the hair, via a needle nose applicator, drenching the hair. The binding agent was left on the hair for a period of about 7.5 minutes. The hair was drenched for a second time with the binding formulation and left for a second 7.5 minutes, for a total of 15 minutes. The hair was then rinsed with water for about 1-2 minutes then unrolled from the perm rods. After the hair was removed from the perm rods, the hair was shampooed and conditioned with various salon shampoo and conditioner brands, including LiQWd® Hydrating Shampoo and Hydrating Conditioner. The washing and drying steps were repeated 40 times. […]

[2] = Hair breakage after repeated perm, visual inspection; design: species or system human; conditions: perm procedure repeated three times over 48 hours
Experimental: Two hair samples were obtained. Both samples were treated with dithiothreitol or ammonium thioglycolate as described in Example 1. One of the hair samples was subsequently treated with the binding formulation, while the other was neutralized with hydrogen peroxide. The process was completed the same day for the hair treated with the binding formulation. The process was completed in three days with hydrogen peroxide (traditional perm).
The procedure was repeated three times for each hair sample over a 48 hour time period.

OO [hydrogen peroxide]
reduction in the overall curl [1]: only slight reduction in the overall curl | hair breakage upon visual inspection [2]: significant breakage
